One may read the IC50 as the concentration that inhibits the measured activity by half. A higher IC50 goes with weaker potency in that assay.

The target of one experiment is G6PD (Homo sapiens, UniProt P11413). Kind of experiment: G6PD enzymatic activity by diaphorase-coupled assay.
Chain of G6PD (P11413 28-515): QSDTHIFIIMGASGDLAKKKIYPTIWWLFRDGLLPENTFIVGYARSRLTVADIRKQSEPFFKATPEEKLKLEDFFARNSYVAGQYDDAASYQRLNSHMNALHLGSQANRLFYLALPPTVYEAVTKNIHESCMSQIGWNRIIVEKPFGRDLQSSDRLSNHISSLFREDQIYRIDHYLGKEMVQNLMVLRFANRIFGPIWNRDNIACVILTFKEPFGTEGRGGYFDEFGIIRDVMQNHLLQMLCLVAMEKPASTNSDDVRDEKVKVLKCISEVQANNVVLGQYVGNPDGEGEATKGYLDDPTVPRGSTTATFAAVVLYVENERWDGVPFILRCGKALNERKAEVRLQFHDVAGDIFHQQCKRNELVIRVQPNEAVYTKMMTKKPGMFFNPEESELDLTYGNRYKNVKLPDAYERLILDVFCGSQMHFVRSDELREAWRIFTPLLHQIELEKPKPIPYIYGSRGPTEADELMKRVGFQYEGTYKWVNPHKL
Details: not given
On to `O=C1CCCCc2nc(Nc3cc(C(F)(F)F)cc(C(F)(F)F)c3)ncc21` [Compound 0014], for which the IC50 is 1 to 1000 µM.
In the case of `O=C1CCCCc2nc(Nc3ccc(F)c(Cl)c3)ncc21` [Compound 0017], the IC50 was below 1 µM.
The same measure, in the same setting: the result for `N#Cc1cc(Nc2ncc3c(n2)CCCCC3=O)ccc1Cl` [Compound 0018] reads 1 to 1000 µM.
Compound `Cc1ccc(Nc2ncc3c(n2)CCCCC3=O)cc1C#N` [Compound 0019] showed an IC50 below 1 µM.
Same read-out and setting: the result for `CC1(C)OB(c2cccc(Nc3ncc4c(n3)CCCCC4=O)c2)OC1(C)C` [Compound 0023] reads 1 to 1000 µM; that for `O=C1CCCCc2nc(Nc3ccc([N+](=O)[O-])c(Cl)c3)ncc21` [Compound 0025], 1 to 1000 µM; that for `O=C1CCCCc2nc(Nc3cc(Cl)cc(C(F)(F)F)c3)ncc21` [Compound 0027], 1 to 1000 µM.
Still for that read-out and setting: the result for `N#Cc1cc(Nc2ncc3c(n2)CCCCC3(F)F)cs1` [Compound 0031] reads 1 to 1000 µM.
Still for that read-out and setting: the result for `O=C1CCCCc2nc(Nc3csc(-c4nnn[nH]4)c3)ncc21` [Compound 0033] reads 1 to 1000 µM; that for `N#CC(C#N)=C1CCCCc2nc(Nc3csc(C#N)c3)ncc21` [Compound 0034], below 1 µM.
In turn, `N#Cc1cc(Nc2ncc3c(n2)CCCCC3=O)cc(OCc2ccccc2)c1` [Compound 0035] displayed an IC50 below 1 µM.
On the same count and under the same terms, to `O=C1CCCCc2nc(Nc3ccc(-c4nnn[nH]4)cc3)ncc21` [Compound 0036] belongs below 1 µM; to `N#Cc1cc(Nc2ncc3c(n2)C2CCC(C2)C3=O)cs1` (centres unmarked) [Compound 0040], 1 to 1000 µM.
In turn, `Cc1ccc(C(=O)c2cc(Cl)cc(Nc3ncc4c(n3)CCCCC4=O)c2)cc1` [Compound 0043] yielded an IC50 above 1000 µM.
The compound `N#Cc1cc(Nc2ncc3c(n2)CCCCC3=O)cc(OCc2ccc(Cl)cc2)c1` [Compound 0045] displayed an IC50 of 1 to 1000 µM.
`N#Cc1cc(Nc2ncc3c(n2)CCCCC3=O)cc(OCc2cccc(Cl)c2)c1` [Compound 0046] registered an IC50 below 1 µM.
`N#Cc1cc(Nc2ncc3c(n2)CCCCC3=O)cc(OCc2ccccc2Cl)c1` [Compound 0047] returned an IC50 below 1 µM.
Compound `COc1ccc(COc2cc(C#N)cc(Nc3ncc4c(n3)CCCCC4=O)c2)cc1` [Compound 0048] had an IC50 below 1 µM.
On the same count and under the same terms, the result for `N#Cc1cc(Nc2ncc3c(n2)CCCCC3=O)cc(OCc2ccsc2)c1` [Compound 0049] reads below 1 µM; that for `N#Cc1cc(Nc2ncc3c(n2)CCCCC3=O)cc(OCc2c(F)c(F)c(F)c(F)c2F)c1` [Compound 0050], below 1 µM; that for `N#Cc1cc(Nc2ncc3c(n2)CCCCC3=O)c[nH]1` [Compound 0051], below 1 µM.
Compound `N#Cc1cc(Nc2ncc3c(n2)CCCc2cnoc2-3)cs1` [Compound 0052] displayed an IC50 of 1 to 1000 µM.
Still for that read-out and setting: the result for `N#Cc1cc(Nc2ncc3c(n2)CCCC/C3=N\O)cs1` [Compound 0053] reads above 1000 µM; that for `N#Cc1cc(Nc2ncc3c(n2)CCCC/C3=N/O)cs1` [Compound 0054], above 1000 µM.
In the case of `N#C/C=C1\CCCCc2nc(Nc3csc(C#N)c3)ncc21` [Compound 0055], the IC50 fell in the range of 1 to 1000 µM.
For the compound `N#C/C=C1/CCCCc2nc(Nc3csc(C#N)c3)ncc21` [Compound 0056], the IC50 fell in the range of 1 to 1000 µM.
On the same count and under the same terms, the result for `Cn1cc(Nc2ncc3c(n2)CCCCC3=O)cc1C#N` [Compound 0057] reads 1 to 1000 µM.
Same read-out and setting: the result for `N#Cc1cc(Nc2ncc3c(n2)CCCCC3=O)cn1Cc1ccccc1` [Compound 0058] reads 1 to 1000 µM; that for `CCOc1cc(C#N)cc(Nc2ncc3c(n2)CCCCC3=O)c1` [Compound 0059], below 1 µM.
Same read-out and setting: to `CCCOc1cc(C#N)cc(Nc2ncc3c(n2)CCCCC3=O)c1` [Compound 0060] belongs below 1 µM; to `CC(C)Oc1cc(C#N)cc(Nc2ncc3c(n2)CCCCC3=O)c1` [Compound 0061], below 1 µM.
For the compound `C#CCOc1cc(C#N)cc(Nc2ncc3c(n2)CCCCC3=O)c1` [Compound 0062], the IC50 is below 1 µM.
The same measure, in the same setting: the result for `N#Cc1cc(Nc2ncc3c(n2)CCCCC3=O)cc(OC2CCCCC2)c1` [Compound 0063] reads below 1 µM; that for `N#Cc1cc(Nc2cc3c(cn2)C(=O)CCCC3)cs1` [Compound 0066], 1 to 1000 µM.
Still for that read-out and setting: to `N#Cc1cc(Nc2ncc3c(n2)CCCc2cn[nH]c2-3)cs1` [Compound 0067] belongs 1 to 1000 µM; to `N#Cc1scc(Nc2ncc3c(n2)CCCCC3=O)c1-n1cccc1` [Compound 0071], below 1 µM; to `N#Cc1cc(Nc2ncc3c(n2)CCCCC3=O)cc(OCC2CCCCC2)c1` [Compound 0072], 1 to 1000 µM.
On to `N#Cc1cc(Nc2ncc3c(n2)CCCCC3=O)cc(OCc2ccc(Br)cc2)c1` [Compound 0073], for which the IC50 was 1 to 1000 µM.
In turn, `Cc1ccc(COc2cc(C#N)cc(Nc3ncc4c(n3)CCCCC4=O)c2)cc1` [Compound 0074] came in with an IC50 below 1 µM.
On the same count and under the same terms, to `N#Cc1cc(Nc2ncc3c(n2)CCCCC3=O)cc(OCc2ccc3c(c2)OCO3)c1` [Compound 0075] belongs below 1 µM; to `N#Cc1cc(Nc2ncc3c(n2)CCCCC3=O)cc(OCc2ccc(F)cc2)c1` [Compound 0076], below 1 µM; to `N#Cc1cc(Nc2ncc3c(n2)CCCCC3=O)cc(OCc2ccc(OC(F)(F)F)cc2)c1` [Compound 0077], 1 to 1000 µM.
On the same count and under the same terms, the result for `N#Cc1cc(Nc2ncc3c(n2)CCCCC3=O)cc(OCc2ccncc2)c1` [Compound 0078] reads below 1 µM; that for `N#Cc1cc(Nc2ncc3c(n2)CCCCC3=O)cc(OCc2cccc3ccccc23)c1` [Compound 0079], below 1 µM.
Still for that read-out and setting: the result for `N#Cc1cc(Nc2ncc3c(n2)CCCCC3=O)cc(OCc2ccc3ccccc3c2)c1` [Compound 0080] reads 1 to 1000 µM; that for `N#Cc1cc(Nc2ncc3c(n2)CCCCC3=O)cc(OCc2c[nH]c3ccccc23)c1` [Compound 0081], above 1000 µM.
Take `N#Cc1cc(Nc2ncc3c(n2)CCCCC3=O)cc(OCc2ccc(CO)cc2)c1` [Compound 0082]: the IC50 was below 1 µM.
In the case of `N#Cc1cc(Nc2ncc3c(n2)CCCCC3=O)cc(OCc2cccc(CO)c2)c1` [Compound 0083], the IC50 is below 1 µM.
The same measure, in the same setting: to `N#Cc1cc(Nc2ncc3c(n2)CCCCC3=O)cc(Oc2ccccc2)c1` [Compound 0084] belongs 1 to 1000 µM; to `N#Cc1cc(Nc2ncc3c(n2)CCCCC3=O)cc(OC(=O)c2ccccc2)c1` [Compound 0085], 1 to 1000 µM; to `N#Cc1cccc(Nc2ncc3c(n2)CCCCC3=O)c1F` [Compound 0087], below 1 µM.
`N#Cc1ccc(F)c(Nc2ncc3c(n2)CCCCC3=O)c1` [Compound 0088]: the IC50 was in the range of 1 to 1000 µM.
Turning to `CCCCOc1cc(C#N)cc(Nc2ncc3c(n2)CCCCC3=O)c1` [Compound 0089], the IC50 fell in the range of 1 to 1000 µM.
Same read-out and setting: the result for `CCOCCOc1cc(C#N)cc(Nc2ncc3c(n2)CCCCC3=O)c1` [Compound 0090] reads 1 to 1000 µM.
Compound `CCCCCCCCCCCCCCOc1cc(C#N)cc(Nc2ncc3c(n2)CCCCC3=O)c1` [Compound 0092] came in with an IC50 above 1000 µM.
`CC1(C)[C@H]2CCC1(C)[C@@H](Oc1cc(C#N)cc(Nc3ncc4c(n3)CCCCC4=O)c1)C2` [Compound 0093]: the IC50 was above 1000 µM.
Turning to `C#CCCCOc1cc(C#N)cc(Nc2ncc3c(n2)CCCCC3=O)c1` [Compound 0094], the IC50 is below 1 µM.

Staying with this experiment, now noted: Normalized in vitro IC50, Table 1A; diaphorase-coupled biochemical assay, normalization to an intraplate control.
Regarding `O=C1CCCCc2nc(Nc3ccc(F)cc3)ncc21` [Compound 0001], the IC50 was in the range of 1 to 1000 µM.
`O=C1CCCCc2nc(Nc3ccc(Cl)cc3)ncc21` [Compound 0002] displayed an IC50 of 1 to 1000 µM.
`O=C1CCCCc2nc(Nc3ccc(Br)cc3)ncc21` [Compound 0003] gave an IC50 of 1 to 1000 µM.
`O=C1CCCCc2nc(Nc3ccc(I)cc3)ncc21` [Compound 0004] displayed an IC50 of 1 to 1000 µM.
`Cc1ccc(Nc2ncc3c(n2)CCCCC3=O)cc1` [Compound 0005] had an IC50 of 1 to 1000 µM.
In turn, `CCc1ccc(Nc2ncc3c(n2)CCCCC3=O)cc1` [Compound 0006] yielded an IC50 of 1 to 1000 µM.
On to `CC(C)c1ccc(Nc2ncc3c(n2)CCCCC3=O)cc1` [Compound 0007], for which the IC50 was in the range of 1 to 1000 µM.
On the same count and under the same terms, to `COc1ccc(Nc2ncc3c(n2)CCCCC3=O)cc1` [Compound 0008] belongs 1 to 1000 µM; to `O=C1CCCCc2nc(Nc3ccc(SC(F)(F)F)cc3)ncc21` [Compound 0009], 1 to 1000 µM.
Still for that read-out and setting: the result for `O=C1CCCCc2nc(Nc3ccc(C(F)(F)F)cc3)ncc21` [Compound 0010] reads 1 to 1000 µM; that for `O=C1CCCCc2nc(Nc3ccc([N+](=O)[O-])cc3)ncc21` [Compound 0011], 1 to 1000 µM.
The same measure, in the same setting: the result for `N#Cc1ccc(Nc2ncc3c(n2)CCCCC3=O)cc1` [Compound 0012] reads 1 to 1000 µM; that for `CC(=O)Nc1ccc(Nc2ncc3c(n2)CCCCC3=O)cc1` [Compound 0013], above 1000 µM; that for `O=C1CCCCc2nc(Nc3ccccc3F)ncc21` [Compound 0015], 1 to 1000 µM.
`O=C1CCCCc2nc(Nc3ccccc3Cl)ncc21` [Compound 0016] had an IC50 of 1 to 1000 µM.
Still for that read-out and setting: the result for `COc1ccc(Nc2ncc3c(n2)CCCCC3=O)cc1C#N` [Compound 0020] reads below 1 µM; that for `O=C1CCCCc2nc(Nc3ccccc3)ncc21` [Compound 0021], 1 to 1000 µM; that for `COC(=O)c1ccc(Nc2ncc3c(n2)CCCCC3=O)cc1` [Compound 0022], 1 to 1000 µM.
Same read-out and setting: the result for `N#CCc1cccc(Nc2ncc3c(n2)CCCCC3=O)c1` [Compound 0024] reads 1 to 1000 µM.
Compound `N#CCc1ccc(Nc2ncc3c(n2)CCCCC3=O)cc1` [Compound 0026] came in with an IC50 of 1 to 1000 µM.
Still for that read-out and setting: the result for `O=C1CCCCc2nc(Nc3cccc(Cl)c3)ncc21` [Compound 0028] reads below 1 µM; that for `O=C1CCCCc2nc(Nc3ccc(B(O)O)cc3)ncc21` [Compound 0032], 1 to 1000 µM.
For the compound `O=C(c1ccccc1)c1cc(Cl)cc(Nc2ncc3c(n2)CCCCC3=O)c1` [Compound 0042], the IC50 was 1 to 1000 µM.
The same measure, in the same setting: to `NS(=O)(=O)c1ccc(Nc2ncc3c(n2)CCCCC3=O)cc1` [Compound 0044] belongs 1 to 1000 µM.
Same read-out and setting: to `N#Cc1cc(Nc2ncc3c(n2)CCCCC3=O)cs1` [Compound 0065] belongs below 1 µM; to `COc1ccc(Oc2cc(C#N)cc(Nc3ncc4c(n3)CCCCC4=O)c2)cc1` [Compound 0086], 1 to 1000 µM.

(Values after US20230348401A1, “Inhibitors of Glucose-6-phosphate Dehydrogenase and Uses Thereof” (The Trustees of Princeton University, priority 2020, published 2023).)
